Columns and labels:
[1] = test system: tobacco leaves; conditions: peptides described in prior applications; cited from earlier work
[2] = test system: tobacco leaves; test: Hypersensitive response test of purified Fresno-p5-21 infused into tobacco leaves; format: in vivo; conditions: after 2 days
Method: The production and purification procedure of Examples 4 and 5 were scaled up to 1 L to produce a quantity of protein appropriate for hypersensitive response elicitation in tobacco leaves.
Briefly, 1 L of LB culture media was supplemented with 10 ug/ml Kanamycin and cells were grown as in Example 3 for 2 days in a baffled flask. Cells were harvested at 6000 g for 20 minutes at 4° C. Culture supernatant was removed from the cells and the cells were resuspended in 20 ml of Bugbuster Protein Extraction Reagent supplemented with 50 ug/ml lysozyme. The sample was gently rocked at room temperature for 30 minutes and then frozen on liquid nitrogen and stored at −80° C.
The sample was thawed on ice and a 1/50 volume of 500 mM imidazole was added for a final concentration of 10 mM imidazole. 8 ml of the sample was mixed with 2 ml of settled Ni-NTA agarose resin (5-Prime) end-over-end for 2 hours at 4° C. The column was then settled for 20 minutes and allowed to flow by gravity. The flowthrough was collected. The resin was washed with 5 column volumes of 50 mM sodium phosphate, 15 mM imidazole, 200 mM NaCl. Finally, the protein was eluted with 250 mM imidazole, pH 7.5. […] The protein concentration was quantified by UV/Vis spectroscopy using a Nanodrop 2000 (Thermo Fisher Scientific, Waltham, MA, USA). […]

[3] = Confirmation of soluble protein in bacterial cell lysates; format: physicochemical; conditions: B. subtilis lysate, Bugbuster plus lysozyme, 20,000 g for 10 minutes at 4° C.
Method: Fluorescent colonies from Example 3 were inoculated into 5 ml cultures of LB medium supplemented with 10 ug/ml Kanamycin and grown for 2 days with 170 rpm shaking at 37° C. Cells were harvested by centrifugation (5000 g for 15 minutes at 4° C.). The culture was decanted away from the cell pellet. The cell pellets were resuspended in 1 ml each of Bugbuster Protein Extraction Reagent (EMD Millipore, Billerica, MA, USA) supplemented with 200 ug/ml of lysozyme. Lysis was allowed to proceed for 20 minutes at room temperature (20° C.). The lysates were centrifuged at 20,000 g for 10 minutes at 4° C. to separate soluble from insoluble proteins.

Molecule	induction of a hypersensitive response [1]	hypersensitive response (lesions typical of HR) ([2]; 1× concentration (about 100 ug/ml protein))	hypersensitive response (lesions typical of HR) ([2]; 2× dilution)	solubility of recombinant protein (colour of lysate supernatant) [3]
SEEEEQLDOLLLAFIAAALQQ (SEEEEQLDQLLLAFIAAALQQ; P5-25)	does not			
SEEQLELLLAFIAAALQQEE [P5-21]	capable of inducing a hypersensitive response			
SAGSEQQLDQLLLMFIMMMLQQ [P5a]	capable of inducing a hypersensitive response			
SAGSEQQLDLLLMFIMMMLQQ [P5]	capable of inducing a hypersensitive response			
Fresno-P5-21: Red fluorescent protein Fresno fused at C-terminus to harpin peptide P5-21 and 6×His tag, SEQ ID NO: 13 (protein) MNSLIKENMHMKLYMEGTVNNHHFKCTSEGEGKPYEGTQTMRIKVVEGGPLPFAFDILATSFMYGSRTFIKYPKGIPDFFKQSFPEGFTWERVTRYEDGGVVTATQDTSLEDGCLVYHVQVRGVNFPSNGPVMQKKTLGWEPNTEMLYPADGGLEGRSDMALKLVGGGHLSCSFVTTYRSKKTVGNIKMPGIHAVDHRLVRIKEADKETYVEQHEVAVAKFAGLGGGMDELYKSEEQLELLLAFIAAALQQEESRHHHHHH		caused lesions	caused lesions	soluble

From patent US12534700B2, “Beneficial microbes for delivery of effector peptides or proteins and use thereof” (priority 2016, dated 2026)
